Earlier results as cited in US11203597B2, “Crystalline spirocyclic compound, a dosage form containing, a method for using in treatment of disease, and a method for recrystallizing” (Altavant Sciences GmbH, priority 2018, dated 2021).

Biological target: T1, TPH1 (Mus musculus, UniProt P17532)
T1 construct: host or cells: mice (in vivo)
T1 sequence (P17532 1-447): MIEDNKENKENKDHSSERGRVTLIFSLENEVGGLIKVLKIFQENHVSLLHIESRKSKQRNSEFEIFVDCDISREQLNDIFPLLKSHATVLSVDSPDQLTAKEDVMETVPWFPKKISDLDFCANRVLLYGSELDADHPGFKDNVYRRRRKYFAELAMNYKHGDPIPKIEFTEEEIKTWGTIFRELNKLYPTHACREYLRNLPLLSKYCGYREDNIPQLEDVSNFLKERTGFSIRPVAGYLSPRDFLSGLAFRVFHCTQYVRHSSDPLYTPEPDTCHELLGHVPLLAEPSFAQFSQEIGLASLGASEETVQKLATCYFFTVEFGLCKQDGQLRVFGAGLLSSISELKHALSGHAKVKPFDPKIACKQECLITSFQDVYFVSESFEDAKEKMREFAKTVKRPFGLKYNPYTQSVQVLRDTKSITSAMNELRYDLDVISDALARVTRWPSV
Details: U.S. Pat. No. 9,199,994, Example 63i and Table 27; cited from earlier work

SMILES: CCOC(=O)[C@@H]1CC2(CCN(c3cc(O[C@H](c4ccc(Cl)cc4-c4ccccc4)C(F)(F)F)nc(N)n3)CC2)CN1 [(S)-ethyl 8-(2-amino-6-((R)-1-(5-chloro-[1,1′-biphenyl]-2-yl)-2,2,2-trifluoroethoxy)pyrimidin-4-yl)-2,8-diazaspiro[4.5]decane-3-carboxylate]
- efficacy in inhibiting TPH1 in mice: demonstrated
